According to US20220267380A1, “Glycopeptides Increasing Lipid Synthesis” (TFCHEM, priority 2019, published 2022):

Test system: normal human dermal fibroblasts (NHDF)
Experiment: Microscopic observations of human dermal fibroblasts in culture (formation of lipid vesicles)
Assay type: cell-based
Conditions: 48 h, vs untreated cells
Experimental: Normal human dermal fibroblasts (NHDF) were grown with Dulbecco's Modified Eagle
Medium (DMEM) supplemented with Fetal Calf Serum (FCS) 10%, antibiotics (Penicillin 50 U/ml—Streptomycin 50 μg/ml) and L-Glutamine 2 mM final. Cells were grown in 37° C. and 5% CO2 incubator.
Fibroblasts were seeded in 24-well plates and cultured in culture medium for 24 hours. The medium was then replaced by assay medium and cells were incubated for further 24 hours. For the assay, the medium was replaced by assay medium containing or not (control) the test compound at different concentrations. After 48 h the morphological observations were evaluated.

SMILES | morphological observation of fibroblasts (10 mg/ml) | morphological observation of fibroblasts (20 mg/ml) | morphological observation of fibroblasts (13 mg/ml)
C[C@H](NC(=O)[C@H](C)NC(=O)[C@@H](N)CCCCNCC(F)(F)[C@]1(O)O[C@H](CO)[C@H](O)[C@H](O)[C@H]1O)C(=O)O [Compound 1] | no effect | induced the formation of lipid vesicles in fibroblasts | –
CC(=O)N(CCCC[C@H](N)C(=O)O)CC(F)(F)[C@]1(O)O[C@H](CO)[C@H](O)[C@H](O)[C@H]1O [Compound 4] | – | – | induces the formation of lipid vesicles in fibroblasts and cell swelling
